Results as given in PMC6102747 (Molecular Medicine Reports, 2018).
Like-named read-outs stand apart in the source and are kept apart here.

Tests used:
Type in all cases: in vivo, rats
[1] = test system: Sult1a1; test: RT-qPCR mRNA expression in small intestine and liver; conditions: vs control
[2] = test system: Car; test: as above; conditions: vs control
[3] = test system: Cyp3a1; conditions: vs control
[4] = test system: Bcrp; test: Western blot protein expression in small intestine and liver; conditions: vs control
[5] = test system: Mrp2; test: as above; conditions: vs control, P<0.001
[6] = test system: Car; test: as above; conditions: vs control
[7] = liver, low-dose Q3GA 2.5 mg/kg i.v. 7 days, P<0.001
[8] = liver, middle-dose Q3GA 5 mg/kg i.v. 7 days, P<0.05
[9] = small intestine, high-dose Q3GA 10 mg/kg i.v. 7 days, P<0.01
[10] = small intestine, low-dose Q3GA 2.5 mg/kg i.v. 7 days, P<0.001
[11] = small intestine, middle-dose Q3GA 5 mg/kg i.v. 7 days, P<0.05
[12] = liver, high-dose Q3GA 10 mg/kg i.v. 7 days, P<0.01
[13] = liver, low-dose Q3GA 2.5 mg/kg i.v. 7 days, P<0.01
[14] = small intestine, middle-dose Q3GA 5 mg/kg i.v. 7 days, P<0.01

O=c1c(O[C@@H]2O[C@H](CO)[C@@H](O)[C@H](O)[C@H]2O)c(-c2ccc(O)c(O)c2)oc2cc(O)cc(O)c12 [Q3GA, Quercetin-3-O-β-D-glucoside]
decrease in Sult1a1 mRNA expression ([1]; liver, high-dose Q3GA 10 mg/kg i.v. 7 days): 18.39% | decrease in Sult1a1 mRNA expression [1, 7]: 58.06% | decrease in Sult1a1 mRNA expression [1, 8]: 31.94% | decrease in Sult1a1 mRNA expression [1, 9]: 52.02% | decrease in Sult1a1 mRNA expression [1, 10]: 64.54% | decrease in Sult1a1 mRNA expression [1, 11]: 33.80% | increase in Car mRNA expression [2, 12]: 74.60% | increase in Car mRNA expression [2, 7]: 224.76% | increase in Car mRNA expression ([2]; liver, middle-dose Q3GA 5 mg/kg i.v. 7 days, P<0.001): 98.73% | increase in Car mRNA expression ([2]; small intestine, high-dose Q3GA 10 mg/kg i.v. 7 days, P<0.05): 117.54% | increase in Car mRNA expression [2, 10]: 265.44% | increase in Car mRNA expression [2, 11]: 99.57% | decrease in CYP3A1 protein expression [3, 12]: 52.99% | decrease in CYP3A1 protein expression [3, 13]: 57.66% | decrease in CYP3A1 protein expression [3, 8]: 43.95% | decrease in CYP3A1 protein expression ([3]; small intestine, high-dose Q3GA 10 mg/kg i.v. 7 days, P<0.001): 62.95% | decrease in CYP3A1 protein expression [3, 10]: 75.25% | decrease in CYP3A1 protein expression [3, 14]: 39.22% | decrease in BCRP protein expression ([4]; liver, high-dose Q3GA 10 mg/kg i.v. 7 days, P<0.05): 30.86% | decrease in BCRP protein expression [4, 7]: 69.78% | decrease in BCRP protein expression [4, 8]: 27.73% | decrease in BCRP protein expression [4, 9]: 36.44% | decrease in BCRP protein expression [4, 10]: 70.61% | decrease in BCRP protein expression [4, 11]: 32.93% | decrease in MRP2 protein expression ([5]; liver, low-dose Q3GA 2.5 mg/kg i.v. 7 days): 70.70% | decrease in MRP2 protein expression ([5]; small intestine, high-dose Q3GA 10 mg/kg i.v. 7 days): 50.84% | decrease in MRP2 protein expression ([5]; small intestine, low-dose Q3GA 2.5 mg/kg i.v. 7 days): 75.95% | decrease in MRP2 protein expression ([5]; small intestine, middle-dose Q3GA 5 mg/kg i.v. 7 days): 42.60% | increase in CAR protein expression ([6]; liver, high-dose Q3GA 10 mg/kg i.v. 7 days, not significant): 211.76% | increase in CAR protein expression [6, 13]: 456.37% | increase in CAR protein expression ([6]; liver, middle-dose Q3GA 5 mg/kg i.v. 7 days, not significant): 208.32% | increase in CAR protein expression [6, 9]: 91.07% | increase in CAR protein expression [6, 10]: 235.46% | increase in CAR protein expression [6, 14]: 78.59%
